A short description of series [1]: Crystallization of purified AHK4 in the presence of tZr (difference density in ligand binding pocket). The series is classed as physicochemical. Conditions: no difference density for the ribose portion of tZr in the crystal complex. The source says: Protein Expression and Purification. A synthetic gene comprising the sensor domain of AHK4 (residues 126-395, numbering in accordance with the short splice-variant of AHK4) was codon-optimised for expression in E. coli (Geneart, Regensburg, Germany). The Ncol/Notl digested synthetic fragment was inserted into a modified pET21d (Novagen) plasmid providing N-terminal 7xHis and Strep II affinity tags and expressed as a SUMO fusion protein in E. coli Origami (DE3) cells (Novagen). Cells grown to an OD600nm of 0.8 were induced with 0.3 mM isopropyl-β-D-thiogalactopyranoside in Terrific Broth at 16° C. for 22 h. Cells were collected by centrifugation at 4,500 xg for 30 min, washed in PBS buffer, incubated with 100 mg lysozyme for 1 h at room temperature and snap-frozen in liquid nitrogen. For protein purification cells were thawn in buffer A (25 mM Tris, pH 7.6, 500 mM NaCl, 15 mM Imidazole and, if applicable, 0.1 mM of the respective cytokinin), lysed by sonication, and centrifuged at 75,000 xg for 90 min. The supernatant was incubated in batch with 5 mL HIS-Select Cobalt Affinity Gel (Sigma), washed with buffer A and eluted in buffer A supplemented with 200 mM imidazole. The fusion protein was dialysed against buffer B (25 mM Tris, pH 8.0, 300 mM NaCl, 1 mM EDTA) and then loaded onto a 1 mL Strep-Tactin Superflow high capacity cartridge (IBA, Gottingen, Germany). […]

Series [2] concerns the target T1, AHK4 (Arabidopsis thaliana, UniProt Q9C5U0).
T1 construct: host or cells: E. coli
Conditions: literature result, Romanov et al., J. Exp. Bot. 57:4051-4058 (2006); cited from earlier work.

SMILES strings stand for the structures.

T1 sequence (Q9C5U0 24-1080 limits assumed): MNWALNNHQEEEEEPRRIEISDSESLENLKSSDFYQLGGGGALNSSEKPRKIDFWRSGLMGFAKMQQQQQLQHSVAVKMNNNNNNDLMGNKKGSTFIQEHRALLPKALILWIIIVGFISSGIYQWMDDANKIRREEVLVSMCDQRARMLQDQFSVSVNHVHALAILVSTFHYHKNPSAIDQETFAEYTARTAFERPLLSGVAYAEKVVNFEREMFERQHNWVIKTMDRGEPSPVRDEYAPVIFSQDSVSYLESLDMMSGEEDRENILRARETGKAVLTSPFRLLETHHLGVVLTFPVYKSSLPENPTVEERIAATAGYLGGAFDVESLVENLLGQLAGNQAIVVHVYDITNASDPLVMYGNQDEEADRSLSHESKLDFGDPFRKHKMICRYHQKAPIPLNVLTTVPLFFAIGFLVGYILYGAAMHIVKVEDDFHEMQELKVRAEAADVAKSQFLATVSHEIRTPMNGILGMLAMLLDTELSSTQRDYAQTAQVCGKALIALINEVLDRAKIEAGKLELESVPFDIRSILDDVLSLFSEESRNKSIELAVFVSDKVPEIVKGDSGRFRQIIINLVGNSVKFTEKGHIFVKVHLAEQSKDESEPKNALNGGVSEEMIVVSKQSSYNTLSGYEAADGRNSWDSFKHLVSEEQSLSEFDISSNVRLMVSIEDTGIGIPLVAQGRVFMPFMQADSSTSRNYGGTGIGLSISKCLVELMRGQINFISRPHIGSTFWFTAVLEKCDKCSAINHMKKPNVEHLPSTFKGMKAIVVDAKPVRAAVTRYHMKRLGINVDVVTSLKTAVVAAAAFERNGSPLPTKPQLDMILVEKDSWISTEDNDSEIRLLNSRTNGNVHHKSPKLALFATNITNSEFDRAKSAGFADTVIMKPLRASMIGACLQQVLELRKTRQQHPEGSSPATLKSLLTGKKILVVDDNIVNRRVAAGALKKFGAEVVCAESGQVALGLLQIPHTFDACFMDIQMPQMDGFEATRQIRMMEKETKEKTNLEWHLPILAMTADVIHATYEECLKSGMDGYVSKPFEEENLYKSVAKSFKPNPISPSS

As to `C/C(=C\CNc1ncnc2c1ncn2[C@@H]1O[C@H](CO)[C@@H](O)[C@H]1O)CO` (relative stereo) [tZr, trans-zeatin riboside], the “stability of ligand during purification with AHK4” value in series [1] was “underwent hydrolysis during purification”. Also, the “binding affinity to AHK4” value in series [2] is “high affinity”.

(Values after US20130004966A1, “STRUCTURE OF CYTOKININS AND CYTOKININ RECEPTORS, AND MODULATION OF CYTOKININ SIGNALING” (Salk Institute for Biological Studies (027731), priority 2011, published 2013).)
